In patent publication US20060276525A1, “Processes of preparing highly pure telmisartan form A, suitable for pharmaceutical compositions” (priority 2005, published 2006):
Where two headings read alike, the source gives them in different places.

Legend:
Format in all cases: physicochemical
[1] = Average particle size measurement (Malvern Mastersizer 2000, particle size distribution); settings: for Particle size distribution D(v,0.1) / Particle size distribution D(v,0.2) / Particle size distribution D(v,0.8) / Particle size distribution D(v,0.95) / Particle size distribution D(v,0.98) / Particle size distribution D(v,1.0) / Particle size distribution D(v,0.5) / Particle size distribution D(v,0.9): carrier liquid water; for Particle size distribution D(v,0.5): size for 50% of the particles; for Particle size distribution D(v,0.9): size for 90% of the particles; for D(V, 0.9): in µm (unit assumed)
Protocol: Average Particle Size Measurement: Particle size was measured by Malvern model Mastersizer 2000, equipped with Malvern Hydro G circulation cell. Carrier: liquid:water. System description: Measuring range: from 0.02-2000 μm. Accuracy: 1% on the Dv50 Light sources: Red light-helium neon laser. Blue light-solid state light source.

[2] = Bulk density (tapped density tester VanKel 50-2300)
Protocol: Bulk Density: Bulk density was measured using tapped density tester dual-platform model VanKel 50-2300 (Varian Inc.). System specifications. Speed: nominal rate of 300 taps per minute, Accuracy: Actual setting±1 tap, Drop height: 14±2 mm. Platform rotation: 5-15 rotations/minute.

[3] = Flowability / electrostatic charging of the ground material; settings: ground by conventional mill
[4] = Sonicated material with no milling
[5] = listed as Telmisartan form A, obtained by crystallization from water
[6] = listed as Telmisartan form A, obtained by crystallization from DMSO

Particle size distribution D(v,0.1) [1] [μ] | Particle size distribution D(v,0.2) [1] [μ] | Particle size distribution D(v,0.8) [1] [μ] | Particle size distribution D(v,0.95) [1] [μ] | Particle size distribution D(v,0.98) [1] [μ] | Particle size distribution D(v,1.0) [1] [μ] | Particle size distribution D(v,0.5) [1] [μ] | Particle size distribution D(v,0.9) [1] [μ] | SMILES | other results
1.08 | 1.45 | 6.04 | 12.07 | 16.13 | 33.57 | 2.83 | 8.97 | CCCc1nc2c(C)cc(-c3nc4ccccc4n3C)cc2n1Cc1ccc(-c2ccccc2C(=O)O)cc1 [Example 4, Telmisartan] | Particle size distribution D(v,0.5) ([1]; listed as Telmisartan form A, obtained by crystallization from DMF): less than 3 μ
– | – | – | – | – | – | – | – | CCCc1nc2c(C)cc(-c3nc4ccccc4n3C)cc2n1Cc1ccc(-c2ccccc2C(=O)O)cc1 [Example 7, Telmisartan] | D(V, 0.1) ([1]; Ground material): 0.7 µm; D(V, 0.5) ([1]; Ground material): 3.3 µm; D(V, 0.9) ([1]; Ground material): 19.1; D(V, 0.1) [1, 4]: 0.8 µm; D(V, 0.5) [1, 4]: 8.1 µm; D(V, 0.9) [1, 4]: 24.7; D(V, 0.1) ([1]; Un-milled material): 51.4 µm; D(V, 0.5) ([1]; Un-milled material): 245 µm; D(V, 0.9) ([1]; Un-milled material): 578.2
0.35 | 0.85 | 11.90 | 23.03 | 30.08 | 52.871 | 4.33 | 17.48 | CCCc1nc2c(C)cc(-c3nc4ccccc4n3C)cc2n1Cc1ccc(-c2ccccc2C(=O)O)cc1 [Example 2, Telmisartan] | Particle size distribution D(v,0.5) [1, 5]: about 4.3 μ; Particle size distribution D(v,0.9) [1, 5]: about 17.5 μ; Bulk density [2, 5]: about 0.22 g/ml
1.60 | 2.25 | 11.46 | 22.21 | 29.03 | 52.87 | 4.98 | 16.78 | CCCc1nc2c(C)cc(-c3nc4ccccc4n3C)cc2n1Cc1ccc(-c2ccccc2C(=O)O)cc1 [Example 1, Telmisartan] | Particle size distribution D(v,0.5) [1, 6]: about 5 μ; Particle size distribution D(v,0.9) [1, 6]: about 17 μ; Bulk density [2]: about 0.3 g/ml; Bulk density [2, 6]: about 0.3 g/ml; Flowability of ground material [3]: free flowing crystalline powder that does not tend to gain electrostatic charge upon grinding
